# Laboratory results from patent US7947668B2, “Aminoalkyl sterol compounds having an anti-tumoral and neuroprotective activity” (Institut National de la Sante et de la Recherche Medicale, priority 2002, dated 2011).
# B1: IL-4: interleukin-4, cytokine (protein, UniProt P05112 25-153, looked up)
# Interleukin-4: HKCDITLQEIIKTLNSLTEQKTLCTELTVTDIFAASKNTTEKETFCRAATVLRQFYSHHEKDTRCLGATAQQFHRHKQLIRFLKRLDRNLWGLAGLNSCPVKEANQSTLENFLERLKTIMREKYSKCSS
# Tested on: U-937 cells
# Assay: Production of IL-12p70 and IL-10 by the dendritic cells (ELISA)
# Format: cell-based, human
# Settings: treatments extending over a period of two weeks
# Protocol: The culture supernatants are frozen at a temperature of −80° C. until the time of testing for the presence of cytokines. The presence of IL-12p70 and IL-10 is measured using ELISA kits obtained from “Endogen” (Woburn, Mass., USA).
# This phenomenon continues for the two weeks of treatment.
row,Molecule,transcription/production of IL-10
1,"sitostane-3β,5α-diol-6β-N-{[2-(1H-imidazol-4-yl)ethyl]ethylamine} [Example 46]",same observations
2,"campestane-3β,5α-diol-6β-N-{[2-(1H-imidazol-4-yl)ethyl]ethylamine} [Example 47]",same observations

# Tested on: PC12 cells
# Assay: Neuritogenesis on PC12 cells
# Format: cell-based
# Settings: dose of 10 nM, action time 36 hours
# Protocol: The PC12 cells were cultured at an initial density of 1.5×10^5 cells/ml in RPMI 1640 medium supplemented with 10% fetal calf serum and 5% horse serum. The base of the culture dishes is treated with a 0.1 wt % polylysine or collagen solution in order to cause adhesion of the cells. The supernatant cells are removed after 12 hours and then treated with or without nerve growth factor (NGF) at 10 ng/ml, with or without the compound of example 6 or of example 7. The cells are observed by phase-contrast microscopy.
# The PC12 cells treated by means of the compound of example 6 were treated at a dose of 10 nM, the action time of the compound being 36 hours.
row,Molecule,change in morphology of PC12 cells toward dendrites
1,"CC(C)CCC[C@@H](C)[C@H]1CC[C@H]2C3=C[C@@H](NCCCCNCCCN)[C@@]4(O)C[C@@H](O)CC[C@]4(C)[C@H]3CC[C@]12C [Example 6, cholest-7-ene-3β,5α-diol-6β-N-[1-N-1-(3-aminopropyl)butane-1,4-diamine]]",formation of dendrites

# Tested on: P19 cells
# Assay: Neuritogenesis on mouse P19 cells
# Format: cell-based
# Settings: dose of 10 nM; after 12 hours of treatment
# Protocol: The P19 cells are derived from a mouse embryonic carcinoma. They are pluripotent cells, which can change into neurones or into glial cells by treatment with retinoic acid (J. Cell. Biol. 1982 August, 94 (2): pp. 253-262) and can differentiate into muscle cells in the presence of dimethyl sulfoxide (Nature 1982-9 September, 299(58 79): pp. 165-167).
# The P19 cells are cultured in the presence of an “RPMI 1640” culture medium sold by the company “Gibco BRL”, this medium being supplemented with 2 mM of glutamine and 4% by weight of fetal calf serum. They are inoculated at low density (10 000 cells per 60-mm well). The P19 cells are treated with the compound of example 6; they are then observed by phase-contrast microscopy. […]
row,Molecule,change in morphology of P19 cells toward dendrites
1,"CC(C)[C@H](C)CC[C@@H](C)[C@H]1CC[C@H]2[C@@H]3C[C@@H](NCCCNCCCCNCCCN)[C@@]4(O)C[C@@H](O)CC[C@]4(C)[C@H]3CC[C@]12C [Example 43, campestane-3β,5α-diol-6β-N-[N,N′-bis(aminopropyl)butane-1,4-diamine]]",same observations
2,"CC(C)CCC[C@@H](C)[C@H]1CC[C@H]2C3=C[C@@H](NCCCNCCCCNCCCN)[C@@]4(O)C[C@@H](O)CC[C@]4(C)[C@H]3CC[C@]12C [Example 7, cholest-7-ene-3β,5α-diol-6β-N-[N,N′-bis(3-aminopropyl)butane-1,4-diamine]]",same observations
3,"CC(C)CCC[C@@H](C)[C@H]1CC[C@H]2[C@@H]3C[C@@H](NCCCCNCCCN)[C@@]4(O)C[C@@H](O)CC[C@]4(C)[C@H]3CC[C@]12C [Example 4, cholestane-3β,5α-diol-6β-N-[1-N1-(3-aminopropyl)butane-1,4-diamine]]",same observations
4,"CC(C)CCC[C@@H](C)[C@H]1CC[C@H]2C3=C[C@@H](NCCCCNCCCN)[C@@]4(O)C[C@@H](O)CC[C@]4(C)[C@H]3CC[C@]12C [Example 6, cholest-7-ene-3β,5α-diol-6β-N-[1-N-1-(3-aminopropyl)butane-1,4-diamine]]",formation of dendrites
5,"CC(C)CCC[C@@H](C)[C@H]1CC[C@H]2[C@@H]3C[C@@H](NCCCNCCCCNCCCN)[C@@]4(O)C[C@@H](O)CC[C@]4(C)[C@H]3CC[C@]12C [Example 5, cholestane-3β,5α-diol-6β-N-[N,N′-bis(3-aminopropyl)butane-1,4-diamine]]",same observations
6,"CC[C@H](CC[C@@H](C)[C@H]1CC[C@H]2[C@@H]3C[C@@H](NCCCCNCCCN)[C@@]4(O)C[C@@H](O)CC[C@]4(C)[C@H]3CC[C@]12C)C(C)C [Example 44, sitostane-3β,5α-diol-6β-N-[1-N1-(3-aminopropyl)butane-1,4-diamine]]",same observations
7,"CC(C)[C@H](C)CC[C@@H](C)[C@H]1CC[C@H]2[C@@H]3C[C@@H](NCCCCNCCCN)[C@@]4(O)C[C@@H](O)CC[C@]4(C)[C@H]3CC[C@]12C [Example 45, campestane-3β,5α-diol-6β-N-[1-N-1-(3-aminopropyl)butane-1,4-diamine]]",same observations
8,"CC[C@H](CC[C@@H](C)[C@H]1CC[C@H]2[C@@H]3C[C@@H](NCCCNCCCCNCCCN)[C@@]4(O)C[C@@H](O)CC[C@]4(C)[C@H]3CC[C@]12C)C(C)C [Example 42, sitostane-3β,5α-diol-6β-N-[N,N′-bis(aminopropyl)butane-1,4-diamine]]",same observations

# Tested on: C57BL/6 mouse spleen monocytes
# Assay: Dendritogenesis on C57BL/6 mouse spleen monocytes
# Format: cell-based
# Settings: dose of 1 nM, 36 hours after the start of action
# Protocol: 1) On C57BL/6 Mouse Spleen Monocytes
# 5-week-old mice are sacrificed by cervical dislocation. They are then dissected. The spleens are removed under sterile conditions and then placed in a cold solution (4° C.) containing serum-free culture medium supplemented with antibiotics (streptomycin and penicillin). The spleens are ground in a sterile fume cupboard and then filtered through a 100 μm filter. The eluate is recovered and then centrifuged at 1000 rpm for 5 minutes at 4° C. The cell pellet is resuspended in phosphate-buffered saline (PBS) solution containing […], the purpose of which is to lyze the red blood cells. The suspension is centrifuged at 1000 rpm and the cells are then resuspended in PBS. The washing operation is performed twice. The final resuspension is performed in whole culture medium, and the cells are counted and distributed into six-well dishes at a density of 40 000 cells/ml. Four hours later, the adhering cells are washed vigorously with PBS in order to remove the cells that might remain attached to the adhering cells or to the culture dish.
# The conversion was obtained with a dose of 1 nM, the photograph having been taken 36 hours after the start of action of the product. The test product is that of example 9. The appearance of cellular extensions is observed, which is one of the main characteristics of activated dendritic cells.
row,Molecule,"morphological changes on the mouse monocytes, conversion into dendritic cells"
1,"CC(C)CCC[C@@H](C)[C@H]1CC[C@H]2[C@@H]3CC=C4C[C@@H](O)CC[C@]4(C)[C@H]3CC[C@]12C [cholesterol, reference compound]",ineffective
2,"CC(C)CCC[C@@H](C)[C@H]1CC[C@H]2[C@@H]3C[C@@H]4O[C@@]45C[C@@H](O)CC[C@]5(C)[C@H]3CC[C@]12C [epoxy-cholesterol derivative, 5,6-α-epoxycholestan-3β-ol, reference compound]",ineffective
3,"NCCc1c[nH]cn1 [amine, 2-(1H-imidazol-4-yl)ethylamine, reference compound]",ineffective
4,GM-CSF: cytokine used with IL-4 to differentiate monocytes into dendritic cells,ineffective
5,B1,ineffective
